# According to patent US10246426B2, “Triazole compounds as T-type calcium channel blockers” (IDORSIA PHARMACEUTICALS LTD, priority 2014, dated 2019):
# Molecular target: Cav3.2 (Homo sapiens, UniProt O95180)
# Assay: Calcium flux FLIPR assay, HEK293 cells recombinantly expressing Cav3.2
# Format: cell-based
# Settings: Cav3.2-channel, Ca2+ entry stimulated by 10 mM CaCl2
# Method: In Vitro Methods—Measurement of Calcium Channel Flux by Means of FLIPR Assays.
# HEK293 cells recombinantly expressing either voltage-dependent T-type calcium channel subunit […] (Cav3.2) or voltage-dependent L-type calcium channel subunit alpha-1C (Cav1.2) are assayed for calcium flux using the calcium indicator dye Fluo-4-AM (Molecular Devices) and FLIPR technology (Fluorometric Imaging Plate Reader, Molecular Devices) (Xie X, Van Deusen A L, Vitko I, Babu D A, Davies L A, Huynh N, Cheng H, Yang N, Barrett P Q, Perez-Reyes E. Validation of high throughput screening assays against three subtypes of Ca(v)3 T-type channels using molecular and pharmacologic approaches. Assay and Drug Development Technologies 2007, 5(2), 191-203). The HEK293 cells recombinantly expressing Cav3.2 are maintained in DMEM growth medium (Life Technologies) supplemented with 10% Fetal Bovine Serum (FBS), 100 U/ml penicilin (Life Technologies), 100 μg/ml streptomycin (Life Technologies) and 1 mg/ml G418 (Life Technologies). HEK293 cells recombinantly expressing Cav1.2 are maintained in DMEM growth medium (Life technologies) supplemented with 10% FBS, 0.1 mg/ml G418 (Life Technologies), 0.1 mg/ml hygromycin (Life Technologies) and 40 ug/ml zeocin (Life Technologies).
# Cells are washed once with PBS, then dissociated in 0.25% trypsin/EDTA (Life Technologies) and seeded into poly-D-lysine coated 384-well black, clear bottom plates (BD Biosciences) at a density of 30,000 cells/well. The seeded plates are incubated overnight at 37° C.
# Immediately prior to performing the assay, medium is removed and cells are treated for 1 hour at 37° C. with loading buffer containing HBSS 1× (137 mM NaCl; 5.4 mM KCl; 0.25 mM Na2HPO4; 1.3 mM CaCl2; 0.4 mM MgSO04; 0.5 mM MgCl2; 0.4 mM KH2PO4, pH 7.4), 0.375 g/L NaHCO3, 20 mM Hepes, supplemented with 3 μM Fluo-4-AM and 0.15% Pluronic (Life Technologies). The cells are then washed three times with assay buffer (HBSS 1×; 0.375 g/L NaHCO3; 20 mM Hepes; 1% FBS; pH 7.4) and allowed to rest in 50 μl of wash buffer for 30 minutes.
# Stock solutions of test compounds are prepared to a concentration of 10 mM in DMSO. For the Cav3.2 assay, serial dilutions of the compounds are prepared in TEAC buffer (100 mM tetraethylammonium chloride; 20 mM Hepes; 2.5 mM CaCl2; 5 mM KCl; 1 mM MgCl2; 1% FBS; pH 7.2), for the Cav1.2 assay serial dilutions are prepared in assay buffer. […] The compounds are incubated with the cells for 3 minutes and Ca2+ entry is stimulated by adding either CaCl2 to a final concentration of 10 mM (Cav3.2 assay) or by adding KCl to a final concentration of 20 mM (Cav1.2 assay). The kinetics of fluorescence increase are recorded for every well and the area under the fluorescence trace for every compound concentration is used to generate inhibition curves using non-linear regression sigmoidal concentration-response curve analysis with in-house software. IC50 values are calculated and represent the compound concentration required to inhibit 50% of the signal that is obtained in the presence of vehicle instead of test compound.
# Chain of Cav3.2 (O95180 whole entry, looked up): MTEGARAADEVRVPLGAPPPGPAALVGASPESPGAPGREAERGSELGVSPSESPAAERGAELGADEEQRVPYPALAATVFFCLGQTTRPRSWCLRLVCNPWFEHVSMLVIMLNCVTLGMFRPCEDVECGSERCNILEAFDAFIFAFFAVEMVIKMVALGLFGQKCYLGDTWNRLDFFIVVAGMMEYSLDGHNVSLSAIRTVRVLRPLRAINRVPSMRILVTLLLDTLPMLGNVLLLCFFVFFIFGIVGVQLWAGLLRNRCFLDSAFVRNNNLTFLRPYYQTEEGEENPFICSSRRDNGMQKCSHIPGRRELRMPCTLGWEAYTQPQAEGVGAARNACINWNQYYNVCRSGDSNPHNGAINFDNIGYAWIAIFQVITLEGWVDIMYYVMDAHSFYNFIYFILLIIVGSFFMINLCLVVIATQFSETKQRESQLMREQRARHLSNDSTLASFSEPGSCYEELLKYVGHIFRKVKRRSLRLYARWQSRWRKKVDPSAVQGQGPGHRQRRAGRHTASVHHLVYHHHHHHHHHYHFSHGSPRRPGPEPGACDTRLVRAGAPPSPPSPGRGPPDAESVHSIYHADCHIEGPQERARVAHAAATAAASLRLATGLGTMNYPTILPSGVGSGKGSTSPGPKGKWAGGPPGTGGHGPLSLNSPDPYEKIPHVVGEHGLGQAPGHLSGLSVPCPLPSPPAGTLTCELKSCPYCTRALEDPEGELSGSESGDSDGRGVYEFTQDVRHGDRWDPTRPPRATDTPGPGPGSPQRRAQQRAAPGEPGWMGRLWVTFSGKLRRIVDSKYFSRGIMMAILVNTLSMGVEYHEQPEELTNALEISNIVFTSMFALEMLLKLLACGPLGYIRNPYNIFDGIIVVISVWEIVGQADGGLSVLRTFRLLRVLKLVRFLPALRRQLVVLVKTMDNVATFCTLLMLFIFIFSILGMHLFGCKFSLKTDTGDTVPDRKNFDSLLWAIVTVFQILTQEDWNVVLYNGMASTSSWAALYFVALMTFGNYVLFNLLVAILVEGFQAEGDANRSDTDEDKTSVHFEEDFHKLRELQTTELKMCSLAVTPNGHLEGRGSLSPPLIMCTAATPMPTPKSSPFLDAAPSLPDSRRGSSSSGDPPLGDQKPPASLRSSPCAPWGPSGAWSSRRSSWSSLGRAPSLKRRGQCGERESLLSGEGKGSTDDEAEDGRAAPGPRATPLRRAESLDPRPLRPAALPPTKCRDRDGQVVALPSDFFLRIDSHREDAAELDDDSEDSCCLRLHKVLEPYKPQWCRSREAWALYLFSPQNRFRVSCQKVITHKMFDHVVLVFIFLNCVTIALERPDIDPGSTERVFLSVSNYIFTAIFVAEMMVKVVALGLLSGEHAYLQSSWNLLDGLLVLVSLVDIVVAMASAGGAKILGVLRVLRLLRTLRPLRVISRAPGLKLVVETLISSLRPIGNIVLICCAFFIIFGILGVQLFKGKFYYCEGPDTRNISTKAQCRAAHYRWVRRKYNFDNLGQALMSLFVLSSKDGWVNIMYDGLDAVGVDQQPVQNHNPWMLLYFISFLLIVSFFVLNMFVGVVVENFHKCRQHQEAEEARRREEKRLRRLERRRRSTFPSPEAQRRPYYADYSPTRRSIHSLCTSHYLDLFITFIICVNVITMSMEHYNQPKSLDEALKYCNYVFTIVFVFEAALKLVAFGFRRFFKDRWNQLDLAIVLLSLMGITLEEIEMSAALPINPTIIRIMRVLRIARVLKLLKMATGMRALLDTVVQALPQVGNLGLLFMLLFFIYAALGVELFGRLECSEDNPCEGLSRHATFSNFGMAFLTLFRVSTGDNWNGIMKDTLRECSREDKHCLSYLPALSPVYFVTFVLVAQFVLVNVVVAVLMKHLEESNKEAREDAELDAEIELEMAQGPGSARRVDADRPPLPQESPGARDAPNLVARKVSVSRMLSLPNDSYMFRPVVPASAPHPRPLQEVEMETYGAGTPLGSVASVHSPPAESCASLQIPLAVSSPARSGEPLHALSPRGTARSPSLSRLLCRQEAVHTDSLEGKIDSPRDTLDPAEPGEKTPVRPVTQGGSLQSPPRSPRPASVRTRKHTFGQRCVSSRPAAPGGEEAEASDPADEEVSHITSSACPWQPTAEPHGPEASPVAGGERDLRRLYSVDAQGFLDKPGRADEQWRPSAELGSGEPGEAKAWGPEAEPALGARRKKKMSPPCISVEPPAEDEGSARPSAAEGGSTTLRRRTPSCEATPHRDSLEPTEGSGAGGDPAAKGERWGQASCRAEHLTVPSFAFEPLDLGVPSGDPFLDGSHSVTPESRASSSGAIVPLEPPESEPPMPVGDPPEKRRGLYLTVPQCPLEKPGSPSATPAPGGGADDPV
smiles,measurement,value
"Cn1ncc2cc(CC(=O)Nc3cnn(Cc4ccc(C#N)cc4)n3)ccc21 [Example 234, N-[2-(4-Cyano-benzyl)-2H-[1,2,3]triazol-4-yl]-2-(1-methyl-1H-indazol-5-yl)-acetamide]",IC50,76 nM
"COc1ccc(Cn2ncc(NC(=O)Cc3ccc4c(cnn4C)c3)n2)cc1F [Example 152, N-[2-(3-Fluoro-4-methoxy-benzyl)-2H-[1,2,3]triazol-4-yl]-2-(1-methyl-1H-indazol-5-yl)-acetamide]",IC50,91 nM
"CC(C)(c1ccc(CC(=O)Nc2cnn(Cc3ccc(C#N)c(F)c3)n2)cc1)C(F)(F)F [Example 249, N-[2-(4-Cyano-3-fluoro-benzyl)-2H-[1,2,3]triazol-4-yl]-2-[4-(2,2,2-trifluoro-1,1-dimethyl-ethyl)-phenyl]-acetamide]",IC50,91 nM
"COc1cc(Cn2ncc(NC(=O)Cc3ccc4c(c3)c(C)cn4C)n2)ccc1F [Example 118, 2-(1,3-Dimethyl-1H-indol-5-yl)-N-[2-(4-fluoro-3-methoxy-benzyl)-2H-[1,2,3]triazol-4-yl]-acetamide]",IC50,63 nM
"Cc1ccc(Cn2ncc(NC(=O)Cc3ccc(C(C)C)cc3)n2)cc1 [Example 24, 2-(4-Isopropyl-phenyl)-N-[2-(4-methyl-benzyl)-2H-[1,2,3]triazol-4-yl]-acetamide]",IC50,37 nM
"COc1ccc(Cn2ncc(NC(=O)Cc3ccc4c(ccn4C)c3)n2)cc1 [Example 57, N-[2-(4-Methoxy-benzyl)-2H-[1,2,3]triazol-4-yl]-2-(1-methyl-1H-indol-5-yl)-acetamide]",IC50,38 nM
"COc1ccc(Cn2ncc(NC(=O)Cc3ccc(OC4CC(F)(F)C4)cc3)n2)cc1C#N [Example 223, N-[2-(3-Cyano-4-methoxy-benzyl)-2H-[1,2,3]triazol-4-yl]-2-[4-(3,3-difluoro-cyclobutoxy)-phenyl]-acetamide]",IC50,120 nM
"COc1ccc(Cn2ncc(NC(=O)Cc3ccc(OC4CC(F)(F)C4)cc3)n2)cc1F [Example 125, 2-[4-(3,3-Difluoro-cyclobutoxy)-phenyl]-N-[2-(3-fluoro-4-methoxy-benzyl)-2H-[1,2,3]triazol-4-yl]-acetamide]",IC50,180 nM
"CCOc1ccc(Cn2ncc(NC(=O)Cc3ccc(N4CCC(F)(F)C4)nc3)n2)cc1 [Example 41, 2-[6-(3,3-Difluoro-pyrrolidin-1-yl)-pyridin-3-yl]-N-[2-(4-ethoxy-benzyl)-2H-[1,2,3]triazol-4-yl]-acetamide]",IC50,18 nM
"COc1c(F)cc(Cn2ncc(NC(=O)Cc3ccc4c(c3)c(C)cn4C)n2)cc1F [Example 150, N-[2-(3,5-Difluoro-4-methoxy-benzyl)-2H-[1,2,3]triazol-4-yl]-2-(1,3-dimethyl-1H-indol-5-yl)-acetamide]",IC50,16 nM
"Cc1nn(C)c2ccc(CC(=O)Nc3cnn(Cc4ccc(C#N)c(F)c4)n3)cc12 [Example 177, N-[2-(4-Cyano-3-fluoro-benzyl)-2H-[1,2,3]triazol-4-yl]-2-(1,3-dimethyl-1H-indazol-5-yl)-acetamide]",IC50,33 nM
"COc1cc(Cn2ncc(NC(=O)Cc3ccc(C(C)(C)C)cc3)n2)cc(F)c1F [Example 218, 2-(4-tert-Butyl-phenyl)-N-[2-(3,4-difluoro-5-methoxy-benzyl)-2H-[1,2,3]triazol-4-yl]-acetamide]",IC50,590 nM
"CCn1ncc2cc(CC(=O)Nc3cnn(Cc4ccc(C#N)c(C)c4)n3)ccc21 [Example 168, N-[2-(4-Cyano-3-methyl-benzyl)-2H-[1,2,3]triazol-4-yl]-2-(1-ethyl-1H-indazol-5-yl)-acetamide]",IC50,40 nM
"Cn1ccc2cc(CC(=O)Nc3cnn(Cc4ccc(C#N)cc4)n3)ccc21 [Example 99, N-[2-(4-Cyano-benzyl)-2H-[1,2,3]triazol-4-yl]-2-(1-methyl-1H-indol-5-yl)-acetamide]",IC50,19 nM
"COc1c(F)cc(Cn2ncc(NC(=O)Cc3ccc(OC4CC(F)(F)C4)cc3)n2)cc1F [Example 146, 2-[4-(3,3-Difluoro-cyclobutoxy)-phenyl]-N-[2-(3,5-difluoro4-methoxy-benzyl)-2H-[1,2,3]triazol-4-yl]-acetamide]",IC50,810 nM
"N#Cc1ccc(Cn2ncc(NC(=O)Cc3ccc(OCC4COC4)cc3)n2)cc1F [Example 131, N-[2-(4-Cyano-3-fluoro-benzyl)-2H-[1,2,3]triazol-4-yl]-2-[4-(oxetan-3-ylmethoxy)-phenyl]-acetamide]",IC50,210 nM
"N#Cc1ccc(Cn2ncc(NC(=O)Cc3ccc(C4(C(F)(F)F)CC4)cc3)n2)nc1 [Example 245, N-[2-(5-Cyano-pyridin-2-ylmethyl)-2H-[1,2,3]triazol-4-yl]-2-[4-(1-trifluoromethyl-cyclopropyl)-phenyl]-acetamide]",IC50,190 nM
"O=C(Cc1ccc(OC2CCC2)cc1)Nc1cnn(Cc2ccc(F)c(F)c2)n1 [Example 9, 2-(4-Cyclobutoxy-phenyl)-N-[2-(3,4-difluoro-benzyl)-2H-[1,2,3]triazol-4-yl]-acetamide]",IC50,22 nM
"O=C(Cc1ccc(N2CCCC2)nc1)Nc1cnn(Cc2ccc(OC(F)F)c(F)c2)n1 [Example 183, N-[2-(4-Difluoromethoxy-3-fluoro-benzyl)-2H-[1,2,3]triazol-4-yl]-2-(6-pyrrolidin-1-yl-pyridin-3-yl)-acetamide]",IC50,26 nM
"CCCCn1ncc2cc(CC(=O)Nc3cnn(Cc4ccc(F)c(F)c4)n3)ccc21 [Example 30, 2-(1-Butyl-1H-indazol-5-yl)-N-[2-(3,4-difluoro-benzyl)-2H-[1,2,3]triazol-4-yl]-acetamide]",IC50,17 nM
"COc1ccc(Cn2ncc(NC(=O)Cc3ccc(C(C)C)cc3)n2)cc1F [Example 154, N-[2-(3-Fluoro-4-methoxy-benzyl)-2H-[1,2,3]triazol-4-yl]-2-(4-isopropyl-phenyl)-acetamide]",IC50,44 nM
"COc1c(F)cc(Cn2ncc(NC(=O)Cc3ccc(C(C)C)cc3)n2)cc1F [Example 80, N-[2-(3,5-Difluoro-4-methoxy-benzyl)-2H-[1,2,3]triazol-4-yl]-2-(4-isopropyl-phenyl)-acetamide]",IC50,29 nM
"COc1cc(Cn2ncc(NC(=O)Cc3ccc(C(C)C)cc3)n2)ccc1F [Example 153, N-[2-(4-Fluoro-3-methoxy-benzyl)-2H-[1,2,3]triazol-4-yl]-2-(4-isopropyl-phenyl)-acetamide]",IC50,70 nM
"Cn1ncc2ccc(CC(=O)Nc3cnn(Cc4ccc(OC(F)(F)F)c(F)c4)n3)cc21 [Example 185, N-[2-(3-Fluoro-4-trifluoromethoxy-benzyl)-2H-[1,2,3]triazol-4-yl]-2-(1-methyl-1H-indazol-6-yl)-acetamide]",IC50,17 nM
"COc1cc(Cn2ncc(NC(=O)Cc3ccc4cnn(C)c4c3)n2)ccc1F [Example 109, N-[2-(4-Fluoro-3-methoxy-benzyl)-2H-[1,2,3]triazol-4-yl]-2-(1-methyl-1H-indazol-6-yl)-acetamide]",IC50,190 nM
"Cc1cn(C)c2cc(CC(=O)Nc3cnn(Cc4ccc(C#N)c(F)c4)n3)ccc12 [Example 105, N-[2-(4-Cyano-3-fluoro-benzyl)-2H-[1,2,3]triazol-4-yl]-2-(1,3-dimethyl-1H-indol-6-yl)-acetamide]",IC50,20 nM
"Cn1ccc2cc(CC(=O)Nc3cnn(Cc4ccc(F)cc4)n3)ccc21 [Example 52, N-[2-(4-Fluoro-benzyl)-2H-[1,2,3]triazol-4-yl]-2-(1-methyl-1H-indol-5-yl)-acetamide]",IC50,12 nM
"COc1ccc(Cn2ncc(NC(=O)Cc3ccc4cnn(C)c4c3)n2)cc1F [Example 121, N-[2-(3-Fluoro-4-methoxy-benzyl)-2H-[1,2,3]triazol-4-yl]-2-(1-methyl-1H-indazol-6-yl)-acetamide]",IC50,290 nM
"Cc1cc(CC(=O)Nc2cnn(Cc3ccc(C#N)cn3)n2)ccc1OCC(F)(F)F [Example 242, N-[2-(5-Cyano-pyridin-2-ylmethyl)-2H-[1,2,3]triazol-4-yl]-2-[3-methyl-4-(2,2,2-trifluoro-ethoxy)-phenyl]-acetamide]",IC50,54 nM
